Bridge positions count the residues as written; N and C are the ends. Square brackets hold non-standard residues; d marks the D form. Peptide text beside a SMILES is read from it. 2Nal = N[C@@H](Cc1ccc2ccccc2c1)C(=O)O; Met(O2) = CS(=O)(=O)CC[C@H](N)C(=O)O; 2Pal = N[C@@H](Cc1ccccn1)C(=O)O; Tic = O=C(O)[C@@H]1Cc2ccccc2CN1; Chg = N[C@H](C(=O)O)C1CCCCC1

Chain of VLA-4-IgG chimeric protein (P13612 34-1032, change not shown): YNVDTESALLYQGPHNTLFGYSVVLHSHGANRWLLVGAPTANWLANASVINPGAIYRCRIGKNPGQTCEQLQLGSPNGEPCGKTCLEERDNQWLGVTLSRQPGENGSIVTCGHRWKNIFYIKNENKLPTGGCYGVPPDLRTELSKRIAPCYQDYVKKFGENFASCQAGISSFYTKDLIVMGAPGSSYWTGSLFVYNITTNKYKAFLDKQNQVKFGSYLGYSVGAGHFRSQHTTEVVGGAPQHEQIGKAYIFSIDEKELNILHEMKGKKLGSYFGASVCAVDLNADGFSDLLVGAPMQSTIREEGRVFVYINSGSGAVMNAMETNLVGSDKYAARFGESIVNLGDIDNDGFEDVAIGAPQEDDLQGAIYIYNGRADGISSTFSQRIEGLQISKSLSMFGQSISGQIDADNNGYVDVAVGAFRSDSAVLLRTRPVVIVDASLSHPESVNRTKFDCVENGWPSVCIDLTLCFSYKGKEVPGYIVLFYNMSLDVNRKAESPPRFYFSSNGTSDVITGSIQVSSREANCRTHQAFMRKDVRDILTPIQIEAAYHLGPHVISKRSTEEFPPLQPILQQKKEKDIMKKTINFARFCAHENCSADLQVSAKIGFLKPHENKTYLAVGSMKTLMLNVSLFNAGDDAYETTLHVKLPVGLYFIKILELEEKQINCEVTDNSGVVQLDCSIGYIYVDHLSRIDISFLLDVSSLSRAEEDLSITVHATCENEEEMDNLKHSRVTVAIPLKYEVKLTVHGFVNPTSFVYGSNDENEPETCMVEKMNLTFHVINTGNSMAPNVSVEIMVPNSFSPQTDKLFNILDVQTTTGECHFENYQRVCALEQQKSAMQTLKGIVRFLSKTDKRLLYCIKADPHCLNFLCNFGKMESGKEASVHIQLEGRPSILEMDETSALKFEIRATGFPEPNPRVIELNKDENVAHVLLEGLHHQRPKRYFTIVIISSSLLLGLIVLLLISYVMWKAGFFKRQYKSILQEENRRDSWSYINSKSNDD
Chain of VLA-4-IgG chimeric protein (P05556 21-798, change not shown): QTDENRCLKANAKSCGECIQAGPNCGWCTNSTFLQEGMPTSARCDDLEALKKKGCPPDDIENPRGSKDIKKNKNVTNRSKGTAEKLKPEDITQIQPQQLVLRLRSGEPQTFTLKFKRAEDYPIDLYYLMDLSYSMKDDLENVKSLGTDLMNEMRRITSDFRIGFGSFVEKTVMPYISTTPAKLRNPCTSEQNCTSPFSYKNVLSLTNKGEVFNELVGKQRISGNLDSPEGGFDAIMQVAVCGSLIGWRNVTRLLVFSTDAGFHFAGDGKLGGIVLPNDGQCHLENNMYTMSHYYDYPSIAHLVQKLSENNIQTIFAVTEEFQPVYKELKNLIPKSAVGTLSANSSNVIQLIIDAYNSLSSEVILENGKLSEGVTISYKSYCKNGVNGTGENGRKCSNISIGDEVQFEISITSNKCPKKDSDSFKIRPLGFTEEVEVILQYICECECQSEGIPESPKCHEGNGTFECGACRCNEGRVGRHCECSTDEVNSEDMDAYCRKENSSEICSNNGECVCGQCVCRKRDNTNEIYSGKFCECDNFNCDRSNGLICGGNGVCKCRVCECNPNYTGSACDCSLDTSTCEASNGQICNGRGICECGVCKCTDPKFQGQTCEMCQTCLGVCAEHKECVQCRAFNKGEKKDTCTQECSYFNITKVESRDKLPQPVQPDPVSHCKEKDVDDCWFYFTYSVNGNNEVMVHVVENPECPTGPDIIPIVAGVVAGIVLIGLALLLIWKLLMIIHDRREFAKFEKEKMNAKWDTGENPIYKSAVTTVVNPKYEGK

The first data set has as its target VLA-4-IgG chimeric protein (Homo sapiens, UniProt P05556+P13612). In words: Inhibition of binding of CS-1 peptide and VLA-4-IgG chimeric protein. To be noted: binding of immobilized CS-1 peptide and VLA-4-IgG chimeric protein, absorbance at 490 nm. An excerpt: As the method for investigating the adhesion inhibiting activity in terms of VLA-4, there can be used an adhesion measuring system for cells such as Ramos cells and Jurkat cells, and fibronectin or a fibronectin fragment, for example a peptide consisting of the CS-1 sequence (Gly Pro Glu Ile Leu Asp Val Pro Ser Thr SEQ ID NO:59) [hereinafter referred to as the CS-1 peptide], immobilized on an immunoplate. Furthermore, as another method, there can be used a binding measurement system for VLA-4 protein and fibronectin or a fibronectin fragment, for example the CS-1 peptide, immobilized on an immunoplate or the like. In the present invention, it is preferred that the inhibiting activity of a compound be evaluated in a binding measurement system for a VLA-4 and immunoglobulin chimeric protein (VLA-4-IgG chimeric protein) and a peptide containing the CS-1 sequence (WO98/032771), but there is no restriction thereto. Reference here to VLA-4-IgG chimeric protein means a heterodimer complex molecule formed when a VLA-4 α4 and immunoglobulin chimeric protein (referred to hereinafter as the VLAα4.IgG chimeric protein) and a VLA-4 β1 and immunoglobulin chimeric protein (referred to hereinafter as the VLAβ1.IgG chimeric protein) undergo association. Moreover, for the immunoglobulin, there can be used heavy or light chains of IgG, IgM or the like, and in the present invention IgG1 heavy chains were used. When observing the cyclic peptide inhibition effect, it is best to use a previously prepared mixture of the α4.IgG heavy chain-β1.IgG heavy chain chimeric protein heterodimer complex and the test material.
Cyclic peptide inhibiting effect in terms of the binding of CS-1 peptide and VLA-4-IgG chimeric protein.
A conjugate of the peptide containing the CS-1 sequence shown in SEQ ID NO:57 and rabbit IgG (Sigma) was prepared in accordance with the literature (Humphries, M. J. et al, J. Biol. Chem., 262, 6886-6892 (1987)). This was diluted with PBS(−), and 100 μl/well quantities introduced into a 96 well immunoplate (NUNC), after which this was left to stand for 16 hours at 4° C. and the CS-1 peptide immobilized.
Gys Lue His Gly Pro Glu Ile Leu Asp Val Pro Ser Thr (SEQ ID NO:57)
Next, after washing the interior of the wells twice with PBS(−), 300 μl/well quantities of 1% BSA-PBS solution which had been heat treated for 10 minutes at 80° C. were introduced, then left for 3 hours at 4° C., after which the solution inside the wells was removed by suction.
Each cyclic peptide and VLA-4-IgG chimeric protein (100 μl) were reacted together beforehand for 20 minutes at room temperature, and then reaction carried out for 3 hours at 30° C. with the CS-1 peptide. Subsequently, the non-bonded VLA-4-IgG chimeric protein was removed by suction, and washed away twice with TBS buffer (150 mM NaCl, 25 mM Tris-HCl, 1 mM MnCl2 pH 7.4) containing 0.1% BSA. To the bonded VLA-4-IgG chimeric protein, biotin labelled anti-human IgG antibody (Vector) as the first antibody was added, and then avidin labelled horseradish peroxidase (Sigma) was added as the second antibody and reaction carried out. Following the reaction, o-phenylenediamine was added as a substrate and colour development effected, and then the absorbance measured at 490 nm. From this absorbance, the binding inhibition activity due to the respective peptides was determined.
As for `CC[C@H](C)[C@@H]1NC(=O)[C@@H](N)CSSC[C@@H](C(=O)O)NC(=O)[C@H](CC(C)C)NC(=O)[C@H](Cc2c[nH]cn2)NC(=O)[C@H](CC(=O)O)NC1=O` [compound 4] (H-CIDHLC-OH; disulfide 1-6), the IC50 (usually the point on the concentration scale where inhibition reaches its midpoint) stood at 1200 nM.

The molecule `CC[C@H](C)[C@@H]1NC(=O)[C@@H](N)CSSC[C@@H](C(=O)O)NC(=O)[C@H](CC(C)C)NC(=O)[C@H](Cc2c[nH]cn2)NC(=O)[C@H](CCC(=O)O)NC1=O` [compound 9] (H-CIEHLC-OH; disulfide 1-6) returned an IC50 of 1600 nM.

Turning to `CC[C@H](C)[C@@H]1NC(=O)[C@@H](N)CSSC[C@@H](C(=O)O)NC(=O)[C@H](CC(C)C)NC(=O)[C@H](Cc2c[nH]cn2)NC(=O)[C@H](CCS(C)(=O)=O)NC1=O` [compound 17] (H-CI[Met(O2)]HLC-OH; disulfide 1-6), the IC50 came to 800 nM.

Turning to `CC(C)C[C@@H]1NC(=O)[C@H](Cc2c[nH]cn2)NC(=O)[C@H](CC(=O)O)NC(=O)[C@H](C2CCCCC2)NC(=O)[C@@H](N)CSSC[C@@H](C(=O)O)NC1=O` [compound 22] (H-C[Chg]DHLC-OH; disulfide 1-6), the IC50 turned out to be 120 nM.

In the case of `CC(C)C[C@@H]1NC(=O)[C@H](Cc2c[nH]cn2)NC(=O)[C@H](CC(=O)O)NC(=O)[C@@H]2Cc3ccccc3CN2C(=O)[C@@H](N)CSSC[C@@H](C(=O)O)NC1=O` [compound 25] (H-C[Tic]DHLC-OH; disulfide 1-6), the IC50 was 650 nM.

In turn, `CC[C@H](C)[C@@H]1NC(=O)[C@@H](N)CSSC[C@@H](C(=O)O)NC(=O)[C@H](CC(C)C)NC(=O)[C@H](Cc2ccccn2)NC(=O)[C@H](CC(=O)O)NC1=O` [compound 29] (H-CID[2Pal]LC-OH; disulfide 1-6) had a concentration for half-maximal inhibition (IC50) of 500 nM.

As for `CC[C@H](C)[C@@H]1NC(=O)[C@@H](N)CSSC[C@@H](C(=O)O)NC(=O)[C@H](CC(C)C)NC(=O)[C@H](Cc2c[nH]c3ccccc23)NC(=O)[C@H](CC(=O)O)NC1=O` [compound 31] (H-CIDWLC-OH; disulfide 1-6), the IC50 stood at 450 nM.

`CC[C@H](C)[C@@H]1NC(=O)[C@@H](N)CSSC[C@@H](C(=O)O)NC(=O)[C@H](CC(C)C)NC(=O)[C@H](Cc2ccc3ccccc3c2)NC(=O)[C@H](CC(=O)O)NC1=O` [compound 34] (H-CID[2Nal]LC-OH; disulfide 1-6; N-terminus and C-terminus assumed): the half-maximal inhibitory concentration (IC50) was determined as 600 nM.

As to `CC[C@H](C)[C@@H]1NC(=O)[C@H](Cc2ccccc2)NC(=O)[C@H](CC(=O)O)NC(=O)[C@H]([C@@H](C)CC)NC(=O)[C@@H](N)CSSC[C@@H](C(=O)O)NC1=O` [compound 48] (H-CIDFIC-OH; disulfide 1-6), the IC50 stood at 250 nM.

Test system in the next data set: not listed separately
Description: Stability in mouse serum. Format: in vitro ADME.
Settings: not given
`CC[C@H](C)[C@@H]1NC(=O)[C@@H](N)CSSC[C@@H](C(=O)O)NC(=O)[C@H](CC(C)C)NC(=O)[C@H](Cc2c[nH]cn2)NC(=O)[C@H](CCS(C)(=O)=O)NC1=O` [Sequence Number 17, C*IMet(O2)HLC*] (H-CI[Met(O2)]HLC-OH; disulfide 1-6; N-terminus and C-terminus assumed): the “stability in mouse serum” value is listed as “stable for 24 hours”.

The values above are taken from US6511961B1, “Cyclic peptides and medicinal use thereof” (Toray Industries, Inc., priority 1997, dated 2003).
